Measurements: patent US8791267B2, “Biaryl PDE4 inhibitors for treating inflammatory, cardiovascular and CNS disorders” (Decode Genetics EHF, priority 2007, dated 2014)
Counter-ions that a name gives are not always drawn.

Assays:
PDE4B = PDE4B (Homo sapiens, UniProt Q07343); experiment: In-vitro assay for PDE4 enzymes, real-time enzyme-coupled spectrophotometric assay, PDE4B Activity (Table 10); type: biochemical; details: human PDE4B (hPDE4B), enzyme-coupled spectrophotometric assay; read-out: PDE4B Activity, hPDE4B
PDE4 = PDE4 (Homo sapiens, UniProt Q08499); experiment: In-vitro assay for PDE4 enzymes, real-time enzyme-coupled spectrophotometric assay (Table 9); type: biochemical; details: human PDE4D; activity class, Table 9; read-out: hPDE4D
Sequence of PDE4 (Q08499 whole entry): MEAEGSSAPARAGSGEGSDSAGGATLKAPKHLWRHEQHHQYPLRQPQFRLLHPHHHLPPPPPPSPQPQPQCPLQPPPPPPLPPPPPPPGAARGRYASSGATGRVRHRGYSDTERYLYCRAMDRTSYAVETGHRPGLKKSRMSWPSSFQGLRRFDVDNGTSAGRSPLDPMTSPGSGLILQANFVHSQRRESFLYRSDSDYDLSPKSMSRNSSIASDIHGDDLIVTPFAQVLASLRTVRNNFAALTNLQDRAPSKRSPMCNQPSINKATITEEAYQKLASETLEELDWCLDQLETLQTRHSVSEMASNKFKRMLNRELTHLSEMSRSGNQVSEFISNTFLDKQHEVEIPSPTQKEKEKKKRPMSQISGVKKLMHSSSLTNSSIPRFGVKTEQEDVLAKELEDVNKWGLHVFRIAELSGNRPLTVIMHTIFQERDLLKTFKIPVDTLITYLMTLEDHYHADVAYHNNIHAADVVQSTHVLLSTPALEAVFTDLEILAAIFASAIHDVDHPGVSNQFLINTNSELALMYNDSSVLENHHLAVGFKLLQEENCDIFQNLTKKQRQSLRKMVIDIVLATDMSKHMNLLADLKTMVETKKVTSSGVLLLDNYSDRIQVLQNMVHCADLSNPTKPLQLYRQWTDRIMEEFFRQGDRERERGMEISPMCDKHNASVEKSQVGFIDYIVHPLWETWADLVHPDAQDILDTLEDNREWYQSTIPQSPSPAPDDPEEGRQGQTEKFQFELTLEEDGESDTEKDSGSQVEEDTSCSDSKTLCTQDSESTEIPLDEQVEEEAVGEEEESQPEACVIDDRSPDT

Sequence of PDE4B (Q07343 whole entry): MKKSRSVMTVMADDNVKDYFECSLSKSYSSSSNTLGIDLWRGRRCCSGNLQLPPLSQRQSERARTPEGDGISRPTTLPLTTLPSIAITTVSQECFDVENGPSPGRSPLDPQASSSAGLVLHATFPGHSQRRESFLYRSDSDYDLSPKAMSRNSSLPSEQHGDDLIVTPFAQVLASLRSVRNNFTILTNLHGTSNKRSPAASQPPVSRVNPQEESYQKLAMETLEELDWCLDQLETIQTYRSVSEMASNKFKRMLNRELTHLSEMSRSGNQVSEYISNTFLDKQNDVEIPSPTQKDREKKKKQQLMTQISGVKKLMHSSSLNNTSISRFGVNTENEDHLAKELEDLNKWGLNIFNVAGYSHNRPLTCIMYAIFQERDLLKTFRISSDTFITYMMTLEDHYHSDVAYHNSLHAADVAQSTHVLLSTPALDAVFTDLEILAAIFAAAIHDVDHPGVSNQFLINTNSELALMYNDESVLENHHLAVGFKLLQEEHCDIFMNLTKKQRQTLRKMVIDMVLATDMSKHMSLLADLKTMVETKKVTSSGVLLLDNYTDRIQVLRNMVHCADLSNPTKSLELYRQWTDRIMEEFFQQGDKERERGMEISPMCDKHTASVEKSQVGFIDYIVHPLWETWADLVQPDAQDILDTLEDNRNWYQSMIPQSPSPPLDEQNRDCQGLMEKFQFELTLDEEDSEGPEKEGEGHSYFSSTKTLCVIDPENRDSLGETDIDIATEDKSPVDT

Row | IC50 (PDE4B) | IC50 (PDE4) | Compound
1 | < 5 µM | < 5 µM | COc1ccc(CN2C[C@@H](O)CC2=O)cc1-c1cccc([N+](=O)[O-])c1 [P-248, (S)-4-Hydroxy-1-(6-methoxy-3′-nitro-biphenyl-3-ylmethyl)-pyrrolidin-2-one]
2 | < 5 µM | < 5 µM | COc1ccc(Sc2ccc(N)cc2)cc1-c1cccc(Cl)c1 [P-447, 4-(3′-Chloro-6-methoxy-biphenyl-3-ylsulfanyl)-phenylaammonium chloride]
3 | < 5 µM | < 5 µM | O=[N+]([O-])c1cccc(-c2cc(C(O)c3ccc(F)cc3)ccc2OC(F)(F)F)c1 (stereo not shown) [P-079, (4-Fluoro-phenyl)-(3′-nitro-6-trifluoromethoxy-biphenyl-3-yl)-methanol]
4 | < 5 µM | < 5 µM | COc1ccc(Cc2ccc(C(N)=O)nc2)c(F)c1-c1cccc(Cl)c1 [P-401, 5-(3′-Chloro-2-fluoro-6-methoxy-biphenyl-3-ylmethyl)-pyridine-2-carboxylic acid amide]
5 | < 5 µM | < 5 µM | CCOc1ccc(Cc2ccc(NC(N)=O)cc2)cc1-c1cccc(Cl)c1 [P-541, [4-(3′-Chloro-6-ethoxy-biphenyl-3-ylmethyl)-phenyl]-urea]
6 | < 5 µM | < 5 µM | COc1ccc(Cc2ccc(NC(=O)CCN)cc2)cc1-c1cccc([N+](=O)[O-])c1 [P-159]
7 | < 5 µM | < 5 µM | CC(=O)Nc1ccc(Cc2ccc(OC(F)F)c(-c3cccc(Br)c3)c2F)cc1 [P-313]
8 | < 5 µM | < 5 µM | COc1ccc(Cc2nnc(NC(N)=O)s2)c(F)c1-c1cccc(Cl)c1 [P-352, [5-(3′-Chloro-2-fluoro-6-methoxy-biphenyl-3-ylmethyl)-[1,3,4]thiadiazol-2-yl]-urea]
9 | < 5 µM | < 5 µM | COc1ccc(Cc2cccc(N)c2)cc1-c1cccc(Cl)c1 [P-255, 3-(3′-Chloro-6-methoxy-biphenyl-3-ylmethyl)-phenylamine]
10 | < 5 µM | < 5 µM | COc1ccc(Cc2ccc(NC(=O)CNC(=O)OC(C)(C)C)cc2)cc1-c1cccc([N+](=O)[O-])c1 [P-143]
11 | < 5 µM | < 5 µM | COc1ccc(Cc2cnc(NC(N)=O)nc2)c(F)c1-c1cccc(C(C)=O)c1 [P-362, [5-(3′-Acetyl-2-fluoro-6-methoxy-biphenyl-3-ylmethyl)-pyrimidin-2-yl]-urea]
12 | < 5 µM | < 5 µM | NC(=O)Nc1ccc(Cc2ccc(OC(F)F)c(-c3cccc([N+](=O)[O-])c3)c2F)cc1 [P-316]
13 | < 5 µM | < 5 µM | COc1ccc(Cc2ccc(N)cc2)cc1-c1cccc([N+](=O)[O-])c1 [P-113]
14 | < 5 µM | < 5 µM | COc1ccc(Cc2ccc(NC(=O)CN(C)C)cc2)c(F)c1-c1cccc([N+](=O)[O-])c1 [P-147]
15 | 21 to 40 µM | 5 to 20 µM | COCc1ccc(OC)c(-c2cccc([N+](=O)[O-])c2)n1 [P-025, 3-methoxy-6-methoxymethyl-2-(3-nitro-phenyl)-pyridine]
16 | < 5 µM | < 5 µM | COc1ccc(C(=O)c2ccc(F)cc2)c(F)c1-c1cccc([N+](=O)[O-])c1 [P-049]
17 | < 5 µM | < 5 µM | COc1ccc(Cc2ccc(CNC(C)=O)c(O)c2)c(F)c1-c1cccc(Cl)c1 [P-302]
18 | < 5 µM | < 5 µM | COc1ccc(Cn2cnc([N+](=O)[O-])c2)c(F)c1-c1cccc(Cl)c1 [P-536, 1-(3′-Chloro-2-fluoro-6-methoxy-biphenyl-3-ylmethyl)-4-nitro-1H-imidazole]
19 | < 5 µM | < 5 µM | CCOC(=O)Nc1ccc(Cc2ccc(OC)c(-c3cccc(C#N)c3)c2F)cn1 [P-398, [5-(3′-Cyano-2-fluoro-6-methoxy-biphenyl-3-ylmethyl)-pyridin-2-yl]-carbamic acid ethyl ester]
20 | < 5 µM | < 5 µM | COc1ccc(Cc2ccc(C=O)cc2)c(O)c1-c1cccc([N+](=O)[O-])c1 [P-180, 4-(2-Hydroxy-6-methoxy-3′-nitro-biphenyl-3-ylmethyl)-benzaldehyde]
21 | < 5 µM | < 5 µM | CNC(=O)NCc1ccc(Cc2ccc(OC)c(-c3cccc(Cl)c3)c2)cn1 [P-593, 1-[5-(3′-chloro-6-methoxy-biphenyl-3-ylmethyl)-pyridin-2-ylmethyl]-3-methyl-urea hydrochloride]
22 | < 5 µM | < 5 µM | COc1ccc(Cc2nnc(N)s2)c(F)c1-c1cccc(Cl)c1 [P-333, 5-(3′-Chloro-2-fluoro-6-methoxy-biphenyl-3-ylmethyl)-[1,3,4]thiadiazol-2-ylamine]
23 | < 5 µM | 5 to 20 µM | COc1ccc(Cn2nc3ccccn3c2=O)cc1-c1cccc([N+](=O)[O-])c1 [P-047, 2-(6-Methoxy-3′-nitro-biphenyl-3-ylmethyl)-2H-[1,2,4]triazolo[4,3-a]pyridin-3-one]
24 | < 5 µM | < 5 µM | COc1ccc(Cc2ccc(F)nc2)c(F)c1-c1cccc(Cl)c1 [P-456, 5-(3′Chloro-2-fluoro-6-methoxy-biphenyl-3-ylmethyl)-2-fluoro-pyridine]

Row | IC50 (PDE4B) | IC50 (PDE4) | Compound
25 | < 5 µM | < 5 µM | COc1ccc(Cc2ccc(N3CCC3)nc2)c(F)c1-c1cccc(Cl)c1 [P-569, 2-Azetidin-1-yl-5-(3′-chloro-2-fluoro-6-methoxy-biphenyl-3-ylmethyl)-pyridine]
26 | < 5 µM | < 5 µM | Oc1ccc(Cc2ccc(F)cc2)c(F)c1-c1cccc(Br)c1 [P-496]
27 | < 5 µM | < 5 µM | COc1ccc(CN2C(=O)CC[C@@H]2CN)cc1-c1cccc([N+](=O)[O-])c1 [P-156, (R)-5-Aminomethyl-1-(6-methoxy-3′-nitro-biphenyl-3-ylmethyl)-pyrrolidin-2-one]
28 | < 5 µM | < 5 µM | COc1ccc(Cc2ccnc(N3CCNCC3)c2)c(F)c1-c1cccc(Cl)c1 [P-515, 1-[4-(3′-Chloro-2-fluoro-6-methoxy-biphenyl-3-ylmethyl)-pyridin-2-yl]-piperazine]
29 | 5 to 20 µM | < 5 µM | COc1ccc(Cn2cccn2)cc1-c1ccc2c(c1)OCO2 [P-074, 1-(3-Benzo[1,3]dioxol-5-yl-4-methoxy-benzyl)-1H-pyrazole]
30 | 21 to 40 µM | < 5 µM | COc1ccc(Oc2ccc(=O)[nH]n2)cc1-c1cccc([N+](=O)[O-])c1 [P-015, 6-(6-Methoxy-3′-nitro-biphenyl-3-yloxy)-2H-pyridazin-3-one]
31 | 5 to 20 µM | 20 to 40 µM | COc1ccc(CN2C(=O)CC[C@H]2CN)cc1-c1cccc([N+](=O)[O-])c1 [P-155, (S)-5-Aminomethyl-1-(6-methoxy-3′-nitro-biphenyl-3-ylmethyl)-pyrrolidin-2-one]
32 | 21 to 40 µM | < 5 µM | COc1ccc(COC2=CC(=O)CC2)cc1-c1cccc(C(F)(F)F)c1 [P-091, 3-(6-Methoxy-3′-trifluoromethyl-biphenyl-3-ylmethoxy)-cyclopent-2-enone]
33 | < 5 µM | < 5 µM | COc1ccc(Cc2ccc(NC(C)=O)cc2)c(F)c1-c1cccc([N+](=O)[O-])c1 [P-107]
34 | < 5 µM | < 5 µM | COc1ccc(Cc2ccc(Br)nc2)c(F)c1-c1cccc(Cl)c1 [P-402, 2-Bromo-5-(3′-chloro-2-fluoro-6-methoxy-biphenyl-3-ylmethyl)-pyridine]
35 | < 5 µM | < 5 µM | COc1ccc(Cc2ccc(-n3cnnn3)cc2)c(F)c1-c1cccc(Cl)c1 [P-404, 1-[4-(3′-chloro-2-fluoro-6-methoxy-biphenyl-3-ylmethyl)-phenyl]-1H-tetrazole]
36 | < 5 µM | < 5 µM | [2H]C([2H])([2H])Oc1ccc(Cc2ccc(NC(N)=O)cc2)cc1-c1cccc(Cl)c1 [P-516]
37 | < 5 µM | < 5 µM | COc1ccc(CN2CCCC2=O)cc1-c1cccc(Cl)c1 [P-218, 1-(3′-chloro-6-methoxy-biphenyl-3-ylmethyl)-pyrrolidin-2-one]
38 | < 5 µM | < 5 µM | COc1ccc(Sc2ccc(NC(N)=O)cc2)cc1-c1cccc(Cl)c1 [P-540, [4-(3′-Chloro-6-methoxy-biphenyl-3-ylsulfanyl)-phenyl]-urea]
39 | 5 to 20 µM | < 5 µM | COc1cccc(-c2cc(Cn3cncn3)ccc2OC)c1 [P-086, 1-(6,3′-Dimethoxy-biphenyl-3-ylmethyl)-1H-[1,2,4]triazole]
40 | 5 to 20 µM | < 5 µM | COc1ccc(Cc2cccc(C(N)=O)c2)cc1-c1cccc(Cl)c1 [P-282, 3-(3′-Chloro-6-methoxy-biphenyl-3-ylmethyl)-benzamide]
41 | 5 to 20 µM | 5 to 20 µM | COc1ccc([C@](C)(O)c2ccc(NC(C)=O)cc2)c(F)c1-c1cccc(Cl)c1 (single isomer, unassigned) [P-560]
42 | < 5 µM | < 5 µM | CCNC(=O)Nc1ccc(Cc2ccc(OC)c(-c3cccc(Cl)c3)c2F)c[n+]1[O-] [P-397, 1-[5-(3′-Chloro-2-fluoro-6-methoxy-biphenyl-3-ylmethyl)-1-oxy-pyridin-2-yl]-3-ethyl-urea]
43 | < 5 µM | < 5 µM | COc1ccc(Cc2cnc(N)nc2)c(F)c1-c1cccc(Cl)c1 [P-278]
44 | < 5 µM | < 5 µM | COc1ccc(Cc2ccc(N3CCN(C)C3=O)nc2)c(F)c1-c1cccc(Cl)c1 [P-470, 1-[5-(3′-Chloro-2-fluoro-6-methoxy-biphenyl-3-ylmethyl)-pyridin-2-yl]-3-methyl-imidazolidin-2-one]
45 | < 5 µM | < 5 µM | COc1ccc(Cc2ccc(CNC(N)=O)c(F)c2)c(F)c1-c1cccc(Cl)c1 [P-287]
46 | 21 to 40 µM | 5 to 20 µM | COc1ccc(CN2CCC[C@H]2CO)cc1-c1cccc([N+](=O)[O-])c1 [P-072, [(S)-1-(6-Methoxy-3′-nitro-biphenyl-3-ylmethyl)-pyrrolidin-2-yl]-methanol]
47 | < 5 µM | < 5 µM | COc1ccc(Cc2c(C)nn(CCO)c2C)cc1-c1cccc([N+](=O)[O-])c1 [P-088, 2-[4-(6-Methoxy-3′-nitro-biphenyl-3-ylmethyl)-3,5-dimethyl-pyrazol-1-yl]-ethanol]
